Columns and labels:
[1] = Antagonist activity at human CCR1 assessed as inhibition of ieukotactin-1-induced chemotaxis
[2] = Antagonist activity at human CCR1 assessed as inhibition of MIP1alpha-induced chemotaxis
[3] = Antagonist activity at human CCR1 assessed as inhibition of HCC-1-induced chemotaxis
[4] = Antagonist activity at human CCR1 assessed as inhibition of MPIF-1-induced chemotaxis
[5] = Antagonist activity at human CCR1 assessed as inhibition of RANTES-induced chemotaxis

IC50 [2] [nM] | SMILES | also measured
3.1 | CC(C)[C@@H](NC(=O)[C@@H]1CCC[C@@H]1O)C(=O)N1CC[C@](O)(c2ccc(Cl)cc2)C(C)(C)C1 | –
153 | CC(C)[C@@H](NC(=O)c1cccc(-c2ccccc2NC(N)=O)c1)C(=O)N1CCC(c2ccc(Cl)cc2)CC1 | –
107 | CC(C)[C@@H](NC(=O)Cc1ccncc1)C(=O)N1CCC(c2ccc(Cl)cc2)CC1 | –
48 | CC(C)[C@@H](NC(=O)c1cccc(-c2ccccc2NC(N)=O)c1)C(=O)N1CC[C@](O)(c2ccc(Cl)cc2)C(C)(C)C1 | –
21 | CC(C)[C@@H](NC(=O)c1cccnc1)C(=O)N1CC[C@](O)(c2ccc(Cl)cc2)C2(CC2)C1 | –
18 | CC(C)[C@@H](NC(=O)C1CCCC1)C(=O)N1CCN(c2ccc(Cl)cc2)C(C)(C)C1 | –
13 | CC(C)[C@@H](NC(=O)c1ccc(F)c(O)c1)C(=O)N1CC[C@](O)(c2ccc(Cl)cc2)C(C)(C)C1 | –
12 | CC(C)[C@@H](NC(=O)[C@H]1CC[C@H](O)C1)C(=O)N1CC[C@](O)(c2ccc(Cl)cc2)C(C)(C)C1 | –
9.9 | CC(C)[C@@H](NC(=O)c1cccc(S(N)(=O)=O)c1)C(=O)N1CC[C@](O)(c2ccc(Cl)cc2)C(C)(C)C1 | –
2.9 | CC(C)[C@@H](NC(=O)[C@@H]1CC[C@H](O)C1)C(=O)N1CC[C@](O)(c2ccc(Cl)cc2)C(C)(C)C1 | –
2.5 | CC(C)[C@@H](NC(=O)C1CCCC1)C(=O)N1CC[C@](O)(c2ccc(Cl)cc2)C(C)(C)C1 | –
1.1 | CC(C)[C@@H](NC(=O)[C@H]1CC[C@@H](O)C1)C(=O)N1CC[C@](O)(c2ccc(Cl)cc2)C(C)(C)C1 | –

The remaining lines, values behind:

SMILES | IC50 [2] [nM] | also measured
CC(C)[C@@H](NC(=O)[C@@H]1CC[C@@H](O)C1)C(=O)N1CC[C@](O)(c2ccc(Cl)cc2)C(C)(C)C1 | 2.1 | IC50 [1]: 4.4 nM; IC50 [3]: 4 nM; IC50 [4]: 2.7 nM; IC50 [5]: 1 nM
CC(C)[C@@H](NC(=O)[C@@H]1CCC[C@@H]1N)C(=O)N1CC[C@](O)(c2ccc(Cl)cc2)C(C)(C)C1 | 5.6 | –
CC(C)[C@@H](NC(=O)c1cccc(S(N)(=O)=O)c1)C(=O)N1CCC(c2ccc(Cl)cc2)CC1 | 123 | –
CC(C)[C@@H](NC(=O)c1ccc(F)c(O)c1)C(=O)N1CCC(c2ccc(Cl)cc2)CC1 | 48 | –
CC(C)[C@@H](NC(=O)c1cccnc1)C(=O)N1CC[C@H](c2ccc(Cl)cc2)C(C)(C)C1 | 29 | –
CC(=O)N[C@@H](C(=O)N1CC[C@](O)(c2ccc(Cl)cc2)C(C)(C)C1)C(C)C | 15 | –
CC(C)[C@@H](NC(=O)c1ccccc1)C(=O)N1CC[C@](O)(c2ccc(Cl)cc2)C(C)(C)C1 | 10 | –
CC(C)[C@@H](NC(=O)c1cccc(C(=O)O)c1)C(=O)N1CC[C@](O)(c2ccc(Cl)cc2)C(C)(C)C1 | 8.9 | –
CC(C)[C@@H](NC(=O)C1CCCC1(O)CCN1CCOCC1)C(=O)N1CC[C@](O)(c2ccc(Cl)cc2)C(C)(C)C1 (stereo partly drawn) | 8.3 | –
CC(C)[C@@H](NC(=O)c1cccnc1)C(=O)N1CC[C@](O)(c2ccc(Cl)cc2)C(C)(C)C1 | 6.1 | –
CC(C)[C@@H](NC(=O)c1ccc(Cl)cc1)C(=O)N1CC[C@](O)(c2ccc(Cl)cc2)C(C)(C)C1 | 5.5 | –
CC(C)[C@@H](NC(=O)c1ccccc1Cl)C(=O)N1CC[C@](O)(c2ccc(Cl)cc2)C(C)(C)C1 | 4.7 | –
CCC(=O)N[C@@H](C(=O)N1CC[C@](O)(c2ccc(Cl)cc2)C(C)(C)C1)C(C)C | 3.6 | –
CC(C)[C@@H](NC(=O)Cc1ccncc1)C(=O)N1CC[C@](O)(c2ccc(Cl)cc2)C(C)(C)C1 | 3.5 | –
CC(C)CC(=O)N[C@@H](C(=O)N1CC[C@](O)(c2ccc(Cl)cc2)C(C)(C)C1)C(C)C | 1.9 | –
CC(C)[C@@H](NC(=O)Cc1ccccc1)C(=O)N1CC[C@](O)(c2ccc(Cl)cc2)C(C)(C)C1 | 1.8 | –
CC(C)CCC(=O)N[C@@H](C(=O)N1CC[C@](O)(c2ccc(Cl)cc2)C(C)(C)C1)C(C)C | 1.2 | –

— BindingDB's records for doi:10.1016/j.bmcl.2013.04.079 (Bristol-Myers Squibb, 2013)
